According to patent publication US20040023312A1, “Method for diagnosing huntingtons disease and means of treating it” (priority 2002, published 2004):
Where two headings read alike, the source gives them in different places.

Legend:
[1] = in vivo; cited from earlier work
A2A receptor = A2A receptor (Rattus norvegicus, UniProt P30543); settings: for cAMP formation with NECA + antagonist: 100 nM NECA, ST14A cells
adenyl cyclase = assay: cAMP levels stimulated by forskolin in ST14A parental cells and huntingtin clones; type: cell-based, rat
G-proteins = assay: cAMP response induced by GTP-gammaS, a direct stimulator of G-proteins; type: cell-based, rat; settings: 10 μM GTP-gammaS; parental clone
Description: This concept is set down in the next page.

N548wt cells = assay: Serum-deprivation induced cell death (mitochondrial function); settings: antagonist 100 nM, 24 h serum-free medium
Description: Cell death has been induced by shifting cultures to serum-free medium in the absence (black columns) or presence of the indicated A2A receptor antagonists. Data are the mean±S.E. of 6 experiments run in triplicate and are expressed as % of total cell death. *p<0.05 vs. control, Scheffe's test.
To assess the functional importance of the aberrant A2A receptor phenotype and its possible correlation with susceptibility to cell death, we have performed experiments where the influence of A2A receptor antagonists on the survival rate of ST14A cells have been specifically determined.

[2] = focal ischaemia model; cited from earlier work

A2A receptor, sequence (P30543 whole entry): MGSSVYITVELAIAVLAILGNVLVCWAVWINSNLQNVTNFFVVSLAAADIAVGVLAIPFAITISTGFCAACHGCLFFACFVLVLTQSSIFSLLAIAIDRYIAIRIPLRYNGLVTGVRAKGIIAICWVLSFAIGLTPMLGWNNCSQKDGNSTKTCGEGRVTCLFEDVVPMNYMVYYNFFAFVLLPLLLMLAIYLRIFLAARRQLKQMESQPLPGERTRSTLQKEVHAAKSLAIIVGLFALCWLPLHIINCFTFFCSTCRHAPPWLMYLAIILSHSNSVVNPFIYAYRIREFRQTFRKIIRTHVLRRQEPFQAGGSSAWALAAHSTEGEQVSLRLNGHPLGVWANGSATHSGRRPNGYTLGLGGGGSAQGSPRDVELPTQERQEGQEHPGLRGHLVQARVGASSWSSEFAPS

## CCCCC#Cc1nc(N)c2ncn([C@@H]3O[C@H](C(=O)NCC)[C@@H](O)[C@H]3O)c2n1 [2-hexinyl-NECA]
[1]
  convulsions induced by pentyl-tetrazole: markedly reduces

## Cn1c(=O)c2c(ncn2C)n(C)c1=O [Caffeine, caffeine]
A2A receptor; antagonist 10 μM
  cAMP formation with NECA + antagonist: 30 ± 3 pmole/10^5 cells
A2A receptor; antagonist 100 μM
  cAMP formation with NECA + antagonist: 27 ± 3 pmole/10^5 cells
A2A receptor; antagonist 1 mM
  cAMP formation with NECA + antagonist: 24 ± 3 pmole/10^5 cells
A2A receptor; NECA 100 nM, parental clone and engineered clones
  antagonism of the increases in cAMP induced by NECA: completely antagonizing

## C=C[C@@]1(C)CC(=O)[C@]2(O)[C@@]3(C)[C@@H](O)CCC(C)(C)[C@@H]3[C@H](O)[C@H](OC(C)=O)[C@@]2(C)O1 [Forskolin]
Adenyl cyclase; Forskolin 1 μM + Ro201724 0.5 mM, FL mu cells
  cyclic AMP levels stimulated by forskolin: 78 ± 7 pmoles/10^5 cells
Adenyl cyclase; Forskolin 1 μM + Ro201724 0.5 mM, FL wt cells
  cyclic AMP levels stimulated by forskolin: 60 ± 6 pmoles/10^5 cells
Adenyl cyclase; Forskolin 1 μM + Ro201724 0.5 mM, N548 wt cells
  cyclic AMP levels stimulated by forskolin: 63 ± 6 pmoles/10^5 cells
Adenyl cyclase; Forskolin 1 μM + Ro201724 0.5 mM, ST14A cells
  cyclic AMP levels stimulated by forskolin: 58 ± 4 pmoles/10^5 cells
Adenyl cyclase; Forskolin 1 μM, FL mu cells
  cyclic AMP levels stimulated by forskolin: 55 ± 5 pmoles/10^5 cells
Adenyl cyclase; Forskolin 1 μM, FL wt cells
  cyclic AMP levels stimulated by forskolin: 54 ± 6 pmoles/10^5 cells
Adenyl cyclase; Forskolin 1 μM, N548 wt cells
  cyclic AMP levels stimulated by forskolin: 47 ± 3 pmoles/10^5 cells
Adenyl cyclase; Forskolin 1 μM, ST14A cells
  cyclic AMP levels stimulated by forskolin: 45 ± 5 pmoles/10^5 cells

## Nc1nc2c(ncn2[C@@H]2O[C@H](COP(=O)(O)OP(=O)(O)OP(O)(O)=S)[C@@H](O)[C@H]2O)c(=O)[nH]1 [GTP-gammaS]
G-proteins
  cAMP levels in the presence of GTP-gammaS: 65±2 pmoles/10^5 cells

## Nc1nc2c(cnn2CCc2ccccc2)c2nc(-c3ccco3)nn12 [SCH 58261, 5-amino-7-(2-phenylethyl)-2-(2-furyl)pyrazolo[4,3-e]-1,2,4-triazolo [1,5-c]pyrimidine]
N548wt cells
  effect on extent of serum-deprivation induced cell death: did not significantly affect
[2]
  cortical damage associated with occlusion of the middle cerebral artery: significantly reducing

## Nc1nc(NCCc2ccc(O)cc2)nc2nc(-c3ccco3)nn12 [ZM 241385, 4-[2-[[7-amino-2-(2-furyl)[1,2,4]triazolo[2,3-a][1,3,5]triazin-5-yl]amino]ethyl]phenol]
N548wt cells
  effect on extent of serum-deprivation induced cell death: did not significantly affect
